Results from patent US11793827B2, “Adenosine derivative and pharmaceutical composition comprising the same” (Brii Biosciences, Inc., priority 2021, dated 2023).

Legend:
[1] = Liver S9 stability (human liver S9); type: in vitro ADME; conditions: for half-life at 1 µM: human liver S9, 37° C.; for Formation of EFdA at 30 min: human liver S9, 30 min
Protocol: Add 600 μL/well stop solution (cold in 4° C., including 100 ng/mL Tolbutamide/100 ng/mL Labetalol) to terminate the TO plate, then put it on ice. Dispense 840 μL/well S9 solution to 96-well plate as reservoir according to plate map. Then add 100 μL/well to every plate by Apricot. Incubate S9 solution and compound at 37° C. for about 10 min except NCF60 and TO. After adding S9 solution and 98μ LPB buffer to NCF60, incubate at 37° C. without pre-warming, start timer 1. After 60 min, add 600 μL/well stop solution to terminate the reaction. After pre-warming, dispense 760 μL/well cofactor solution to 96-well plate as reservoir according to plate map. Then add 98 μL/well to every plate by Apricot to start reaction. Incubate at 37° C., start timer 2, Add 600 μL/well stop solution (cold in 4° C., including 100 ng/mL Tolbutamide and Labetalol) to terminate the reaction. Samples are centrifuged at 4000 rpm for 20 min. While centrifuging, load 8× new 96-well plate with 300 μL HPLC water, then transfer 100 μL supernatant, mix with water for LC/MS/MS, transferred to Bioanalytical Services for LC-MS/MS analysis. Use equation of first order kinetics [NT]1/2 and CL: Equation of first order kinetics: [formula] [formula] [formula] [formula]

[2] = Plasma stability (human plasma); conditions: for Formation of EFdA at 30 min: human plasma; for half-life at 2 µM: human, pH 7.4
Protocol: The pooled frozen plasma was thawed in a water bath at 37° C. prior to experiment. Plasma was centrifuged at 4000 rpm for 5 min and the clots were removed if any. The pH will be adjusted to 7.4±0.1 if required.
Preparation of test compounds and positive control (propantheline bromide): 1 mM intermediate solution was prepared by diluting 10 μL of the stock solution with 90 μL MeOH; 1 mM intermediate of positive control Propantheline was prepared by diluting 10 μL of the stock solution with 90 μL ultrapure water. 100 μM dosing solution was prepared by diluting 20 μL of the intermediate solution (1 mM) with 180 μL MeOH. 98 μL of blank plasma was spiked with 2 μL of dosing solution (100 μM) to achieve 2 μM of the final concentration in duplicate and samples were incubated at 37° C. in a water bath. […] Centrifuged sample plates at 4,000 rpm for 10 min. An aliquot of supernatant (100 μL) was transferred from each well to another plates.

C#C[C@@]12COC(=O)OCCCCCC(=O)OC1C[C@H](n1cnc3c(N)nc(F)nc31)O2 (stereo in doubt) [Compound 29, (1R,13R,15R)-15-(6-amino-2-fluoro-9H-purin-9-yl)-13-ethynyl-2,9,11,14-tetraoxabicyclo[11.3.0]hexadecane-3,10-dione]
half-life at 1 µM [1]: < 50 min | Formation of EFdA at 30 min [1]: Yes | Formation of EFdA at 30 min [2]: Yes | half-life at 2 µM ([2]; pooled plasma): < 50 min

C#C[C@@]12COC(=O)OCC3CCCCC3COC(=O)OC1C[C@H](n1cnc3c(N)nc(F)nc31)O2 (stereo in doubt) [Compound 30, (6R,8R,10R)-8-(6-amino-2-fluoro-9H-purin-9-yl)-10-ethynyl-3,5,9,12,14-pentaoxatricyclo[14.4.0.06,10]icosane-4,13-dione]
half-life at 1 µM [1]: < 50 min | Formation of EFdA at 30 min [1]: Yes | Formation of EFdA at 30 min [2]: No | half-life at 2 µM ([2]; pooled plasma): 50 to 200 min

C#C[C@]1(COC(=O)CC23CC4CC(CC(C4)C2)C3)O[C@@H](n2cnc3c(N)nc(F)nc32)C[C@@H]1O [Compound 1, ((2R,3S,5R)-5-(6-amino-2-fluoro-9H-purin-9-yl)-2-ethynyl-3-hydroxy-tetrahydrofuran-2-yl)methyl 2-(1-adamantyl) acetate]
half-life at 1 µM [1]: < 50 min | Formation of EFdA at 30 min [1]: Yes | Formation of EFdA at 30 min [2]: No | half-life at 2 µM ([2]; pooled plasma): > 200 min

C#C[C@]1(COC(=O)C23CC4CC(CC(C4)C2)C3)O[C@@H](n2cnc3c(N)nc(F)nc32)C[C@@H]1O [Compound 3, ((2R, 3S, 5R)-5-(6-amino-2-fluoro-9H-purin-9-yl)-2-ethynyl-3-hydroxy-tetrahydrofuran-2-yl)methyl adamantane-1-carboxylate]
half-life at 1 µM [1]: < 50 min | Formation of EFdA at 30 min [1]: Yes | Formation of EFdA at 30 min [2]: No | half-life at 2 µM ([2]; pooled plasma): < 50 min

C#C[C@]1(COC(=O)OC23CC4CC(CC(C4)C2)C3)O[C@@H](n2cnc3c(N)nc(F)nc32)C[C@@H]1O [Compound 4, ((2R, 3S, 5R)-5-(6-amino-2-fluoro-9H-purin-9-yl)-2-ethynyl-3-hydroxy-tetrahydrofuran-2-yl)methyl 1-adamantyl carbonate]
half-life at 1 µM [1]: < 50 min | Formation of EFdA at 30 min [1]: Yes | Formation of EFdA at 30 min [2]: Yes | half-life at 2 µM ([2]; pooled plasma): > 200 min

C#C[C@]1(COC(=O)OC23CC4CC(CC(C4)C2)C3)O[C@@H](n2cnc3c(N)nc(F)nc32)C[C@@H]1OC(=O)OC12CC3CC(CC(C3)C1)C2 [Compound 6, (((2R,3S,5R)-3-((((1-adamantyl)oxy)carbonyl)oxy)-5-(6-amino-2-fluoro-9H-purin-9-yl)-2-ethynyltetrahydrofuran-2-yl)methyl) 1-adamantyl carbonate]
half-life at 1 µM [1]: < 50 min | Formation of EFdA at 30 min [1]: Yes | Formation of EFdA at 30 min [2]: No | half-life at 2 µM ([2]; pooled plasma): > 200 min

C#C[C@]1(CO)O[C@@H](n2cnc3c(N)nc(F)nc32)C[C@@H]1OC(=O)OCCC12CC3CC(CC(C3)C1)C2 [Compound 8, ((2R,3S,5R)-5-(6-amino-2-fluoro-9H-purin-9-yl)-2-ethynyl-2-(hydroxymethyl)tetrahydrofuran-3-yl) 2-(1-adamantyl)ethyl carbonate]
half-life at 1 µM [1]: < 50 min | Formation of EFdA at 30 min [1]: Yes | Formation of EFdA at 30 min [2]: Yes | half-life at 2 µM ([2]; pooled plasma): 50 to 200 min

C#C[C@]1(COC(=O)OCCC23CC4CC(CC(C4)C2)C3)O[C@@H](n2cnc3c(N)nc(F)nc32)C[C@@H]1OC(=O)OCCC12CC3CC(CC(C3)C1)C2 [Compound 9, ((2R,3S,5R)-2-((((2-(1-adamantyl)ethoxy)carbonyl)oxy)methyl)-5-(6-amino-2-fluoro-9H-purin-9-yl)-2-ethynyltetrahydrofuran-3-yl) 2-(1-adamantyl)ethyl carbonate]
half-life at 1 µM [1]: < 50 min | Formation of EFdA at 30 min [1]: Yes | Formation of EFdA at 30 min [2]: No | half-life at 2 µM ([2]; pooled plasma): > 200 min

C#C[C@]1(CO)O[C@@H](n2cnc3c(N)nc(F)nc32)C[C@@H]1OC(=O)OCCCC12CC3CC(CC(C3)C1)C2 [Compound 11, ((2R,3S,5R)-5-(6-amino-2-fluoro-9H-purin-9-yl)-2-ethynyl-2-(hydroxymethyl)tetrahydrofuran-3-yl) 3-(1-adamantyl)propyl carbonate]
half-life at 1 µM [1]: < 50 min | Formation of EFdA at 30 min [1]: Yes

C#C[C@]1(CO)O[C@@H](n2cnc3c(N)nc(F)nc32)C[C@@H]1OC(=O)OCCCCC12CC3CC(CC(C3)C1)C2 [Compound 13, ((2R,3S,5R)-5-(6-amino-2-fluoro-9H-purin-9-yl)-2-ethynyl-2-(hydroxymethyl)tetrahydrofuran-3-yl) 4-(1-adamantyl)butyl carbonate]
half-life at 1 µM [1]: < 50 min | Formation of EFdA at 30 min [1]: Yes

C#C[C@]1(COC(=O)CCC23CC4CC(CC(C4)C2)C3)O[C@@H](n2cnc3c(N)nc(F)nc32)C[C@@H]1O [Compound 14, ((2R, 3S, 5R)-5-(6-amino-2-fluoro-9H-purin-9-yl)-2-ethynyl-3-hydroxy-tetrahydrofuran-2-yl)methyl 3-(1-adamantyl)propanoate]
half-life at 1 µM [1]: < 50 min | Formation of EFdA at 30 min [1]: Yes | Formation of EFdA at 30 min [2]: Yes | half-life at 2 µM ([2]; pooled plasma): < 50 min

C#C[C@]1(COC(=O)CCCC23CC4CC(CC(C4)C2)C3)O[C@@H](n2cnc3c(N)nc(F)nc32)C[C@@H]1O [Compound 15, ((2R, 3S, 5R)-5-(6-amino-2-fluoro-9H-purin-9-yl)-2-ethynyl-3-hydroxy-tetrahydrofuran-2-yl)methyl 4-(1-adamantyl)butanoate]
half-life at 1 µM [1]: < 50 min | Formation of EFdA at 30 min [1]: Yes | Formation of EFdA at 30 min [2]: Yes | half-life at 2 µM ([2]; pooled plasma): < 50 min

C#C[C@@]12COC(=O)OCCCOC(=O)O[C@H]1C[C@H](n1cnc3c(N)nc(F)nc31)O2 [Compound 16, (10aR,12R,13aS)-12-(6-amino-2-fluoro-9H-purin-9-yl)-10a-ethynylhexahydro-4H,10H-furo[3,2-d][1,3,7,9]tetraoxacyclododecine-2,8-dione]
Formation of EFdA at 30 min [2]: Yes | half-life at 2 µM ([2]; plasma): 50 to 200 min

C#C[C@@]12COC(=O)CCCCCOC(=O)O[C@H]1C[C@H](n1cnc3c(N)nc(F)nc31)O2 [Compound 17, (11aR,13R,14aS)-13-(6-amino-2-fluoro-9H-purin-9-yl)-11a-ethynyloctahydro-11H-furo[3,2-d][1,3,7]trioxacyclotridecine-2,9(4H)-dione]
half-life at 1 µM [1]: < 50 min | Formation of EFdA at 30 min [1]: Yes | Formation of EFdA at 30 min [2]: Yes | half-life at 2 µM ([2]; pooled plasma): > 200 min

C#C[C@]1(COC(=O)OCCC23CC4CC(CC(C4)C2)C3)O[C@@H](n2cnc3c(N)nc(F)nc32)C[C@@H]1OC(=O)OCC [Compound 18, ((2R,3S,5R)-2-((((2-(1-adamantyl)ethoxy)carbonyl)oxy)methyl)-5-(6-amino-2-fluoro-9H-purin-9-yl)-2-ethynyltetrahydrofuran-3-yl) ethyl carbonate]
half-life at 1 µM [1]: < 50 min | Formation of EFdA at 30 min [1]: Yes | Formation of EFdA at 30 min [2]: No | half-life at 2 µM ([2]; plasma): < 50 min

C#C[C@]1(COC(=O)OCCC23CC4CC(CC(C4)C2)C3)O[C@@H](n2cnc3c(N)nc(F)nc32)C[C@@H]1OC(=O)C(C)C [Compound 19, ((2R,3S,5R)-2-((((2-(1-adamantyl)ethoxy)carbonyl)oxy)methyl)-5-(6-amino-2-fluoro-9H-purin-9-yl)-2-ethynyltetrahydrofuran-3-yl) isobutyrate]
half-life at 1 µM [1]: < 50 min | Formation of EFdA at 30 min [1]: Yes | Formation of EFdA at 30 min [2]: No | half-life at 2 µM ([2]; pooled plasma): < 50 min

C#C[C@]1(COC(=O)OCC23CC4CC(CC(C4)C2)C3)O[C@@H](n2cnc3c(N)nc(F)nc32)C[C@@H]1OC(=O)C(C)C [Compound 20, ((2R,3S,5R)-2-(((((1-adamantyl)methoxy)carbonyl)oxy)methyl)-5-(6-amino-2-fluoro-9H-purin-9-yl)-2-ethynyltetrahydrofuran-3-yl) isobutyrate]
half-life at 1 µM [1]: < 50 min | Formation of EFdA at 30 min [1]: Yes

C#C[C@]1(COC(=O)OCCCC23CC4CC(CC(C4)C2)C3)O[C@@H](n2cnc3c(N)nc(F)nc32)C[C@@H]1OC(=O)C(C)C [Compound 21, ((2R,3S,5R)-2-((((3-(1-adamantyl)propoxy)carbonyl)oxy)methyl)-5-(6-amino-2-fluoro-9H-purin-9-yl)-2-ethynyltetrahydrofuran-3-yl) isobutyrate]
half-life at 1 µM [1]: < 50 min | Formation of EFdA at 30 min [1]: Yes | Formation of EFdA at 30 min [2]: Yes | half-life at 2 µM ([2]; pooled plasma): 50 to 200 min
